Test results from ChEMBL document CHEMBL1201862, “PubChem BioAssay data set” (2004).
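Compound exposure: 48 hours, 5 concentrations, 96-well plates. GI50 marks 50% less growth.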 The source made the active and inactive calls. No stated cut-off is given here; in the data, active = GI50 up to about 1.1 µM and inactive = higher.

Legend:
Assay in all cases: growth of human tumour cells (NCI), 48 h
HT-29 = system: HT-29
U-251 = system: U-251
KM12 = system: KM12
OVCAR-8 = system: OVCAR-8
SNB-19 = system: SNB-19
RXF 393 = system: RXF 393
HCT-15 = system: HCT-15
MCF7 = system: MCF7
OVCAR-3 = system: OVCAR-3
SK-MEL-28 = system: SK-MEL-28
UACC-62 = system: UACC-62
SNB-75 = system: SNB-75
K562 = system: K562
T47D = system: T47D
CCRF-CEM = system: CCRF-CEM
HCT-116 = system: HCT-116
A549 = system: A549
A498 = system: A498
EKVX = system: EKVX
NCI-H226 = system: NCI-H226
MDA-N = system: MDA-N
SK-MEL-2 = system: SK-MEL-2
OVCAR-4 = system: OVCAR-4
RPMI-8226 = system: RPMI-8226
SN12C = system: SN12C
OVCAR-5 = system: OVCAR-5
SF-295 = system: SF-295
ACHN = system: ACHN
M14 = system: M14
HOP-62 = system: HOP-62
SF-268 = system: SF-268
MOLT-4 = system: MOLT-4
IGROV-1 = system: IGROV-1
SK-OV-3 = system: SK-OV-3
MDA-MB-231 = system: MDA-MB-231
COLO 205 = system: COLO 205
786-0 = system: 786-0
SW-620 = system: SW-620
SR = system: SR
NCI-H460 = system: NCI-H460
HOP-92 = system: HOP-92
NCI-H23 = system: NCI-H23
PC-3 = system: PC-3
CAKI-1 = system: CAKI-1
Malme-3M = system: Malme-3M
NCI/ADR-RES = system: NCI/ADR-RES
BT-549 = system: BT-549
HCC 2998 = system: HCC 2998
LOX IMVI = system: LOX IMVI
SF-539 = system: SF-539
DU-145 = system: DU-145
NCI-H522 = system: NCI-H522
UACC-257 = system: UACC-257
Hs-578T = system: Hs-578T
SK-MEL-5 = system: SK-MEL-5
MDA-MB-435 = system: MDA-MB-435
TK-10 = system: TK-10
HL-60 = system: HL-60
UO-31 = system: UO-31

CCCCC1(N=[N+]=[N-])C(=O)c2cccc3c2N(CCC3)C1=O (stereo not given)
GI50 (HT-29): > 100 µM (inactive)
GI50 (U-251): > 100 µM (inactive)
GI50 (KM12): > 100 µM (inactive)
GI50 (OVCAR-8): > 100 µM (inactive)
GI50 (SNB-19): > 100 µM (inactive)
GI50 (RXF 393): > 100 µM (inactive)
GI50 (HCT-15): > 100 µM
GI50 (MCF7): > 100 µM (inactive)
GI50 (OVCAR-3): 44.6 µM (inactive)
GI50 (SK-MEL-28): > 100 µM (inactive)
GI50 (UACC-62): 69.2 µM (inactive)
GI50 (SNB-75): > 100 µM (inactive)
GI50 (K562): > 100 µM (inactive)
GI50 (T47D): > 100 µM (inactive)
GI50 (CCRF-CEM): 91.6 µM (inactive)
GI50 (HCT-116): > 100 µM (inactive)
GI50 (A549): > 100 µM (inactive)
GI50 (A498): > 100 µM (inactive)
GI50 (EKVX): > 100 µM (inactive)
GI50 (NCI-H226): > 100 µM (inactive)
GI50 (MDA-N): > 100 µM (inactive)
GI50 (SK-MEL-2): > 100 µM (inactive)
GI50 (OVCAR-4): > 100 µM (inactive)
GI50 (RPMI-8226): > 100 µM (inactive)
GI50 (SN12C): > 100 µM (inactive)
GI50 (OVCAR-5): > 100 µM (inactive)
GI50 (SF-295): > 100 µM (inactive)
GI50 (ACHN): > 100 µM (inactive)
GI50 (M14): > 100 µM (inactive)
GI50 (HOP-62): > 100 µM (inactive)
GI50 (SF-268): > 100 µM (inactive)
GI50 (MOLT-4): > 100 µM (inactive)
GI50 (IGROV-1): > 100 µM (inactive)
GI50 (SK-OV-3): > 100 µM (inactive)
GI50 (MDA-MB-231): > 100 µM (inactive)
GI50 (COLO 205): > 100 µM (inactive)
GI50 (786-0): > 100 µM (inactive)
GI50 (SW-620): > 100 µM (inactive)
GI50 (SR): > 100 µM (inactive)
GI50 (NCI-H460): > 100 µM (inactive)
GI50 (HOP-92): > 100 µM (inactive)
GI50 (NCI-H23): > 100 µM (inactive)
GI50 (PC-3): > 100 µM (inactive)
GI50 (CAKI-1): > 100 µM (inactive)
GI50 (Malme-3M): > 100 µM (inactive)
GI50 (NCI/ADR-RES): 31 µM (inactive)
GI50 (BT-549): > 100 µM (inactive)
GI50 (HCC 2998): > 100 µM (inactive)
GI50 (LOX IMVI): > 100 µM (inactive)
GI50 (SF-539): > 100 µM (inactive)
GI50 (DU-145): > 100 µM (inactive)
GI50 (NCI-H522): > 100 µM (inactive)
GI50 (UACC-257): > 100 µM (inactive)
GI50 (Hs-578T): > 100 µM (inactive)
GI50 (SK-MEL-5): > 100 µM (inactive)
GI50 (MDA-MB-435): > 100 µM (inactive)
GI50 (TK-10): > 100 µM (inactive)

O=C1CNNC(CSc2nc3ccc(I)cc3c(=O)n2Cc2ccccc2)=N1
GI50 (HT-29): 33.7 µM (inactive)
GI50 (U-251): 21.4 µM (inactive)
GI50 (KM12): 28.1 µM (inactive)
GI50 (OVCAR-8): 26.5 µM (inactive)
GI50 (SNB-19): 53.5 µM (inactive)
GI50 (HCT-15): 32 µM
GI50 (MCF7): 28.4 µM (inactive)
GI50 (HL-60): 2.23 µM (inactive)
GI50 (OVCAR-3): 18.6 µM (inactive)
GI50 (SK-MEL-28): 20.9 µM (inactive)
GI50 (UACC-62): 15.8 µM (inactive)
GI50 (SNB-75): 11.6 µM (inactive)
GI50 (K562): 23.7 µM (inactive)
GI50 (T47D): 15.5 µM (inactive)
GI50 (CCRF-CEM): 15.4 µM (inactive)
GI50 (HCT-116): 20.8 µM (inactive)
GI50 (A549): 38.5 µM (inactive)
GI50 (A498): 27.8 µM (inactive)
GI50 (EKVX): 23.6 µM (inactive)
GI50 (NCI-H226): 18.1 µM (inactive)
GI50 (MDA-N): 27.5 µM (inactive)
GI50 (SK-MEL-2): 16.4 µM (inactive)
GI50 (OVCAR-4): 37.4 µM (inactive)
GI50 (RPMI-8226): 22.6 µM (inactive)
GI50 (SN12C): 17.1 µM (inactive)
GI50 (OVCAR-5): 41.2 µM (inactive)
GI50 (SF-295): 20.4 µM (inactive)
GI50 (ACHN): 16.3 µM (inactive)
GI50 (M14): 36.1 µM (inactive)
GI50 (HOP-62): 32.3 µM (inactive)
GI50 (SF-268): 24.7 µM (inactive)
GI50 (MOLT-4): 31.9 µM (inactive)
GI50 (IGROV-1): 18 µM (inactive)
GI50 (SK-OV-3): 33.3 µM (inactive)
GI50 (MDA-MB-231): 14.5 µM (inactive)
GI50 (COLO 205): 14.1 µM (inactive)
GI50 (786-0): 29.9 µM (inactive)
GI50 (SW-620): 42.4 µM (inactive)
GI50 (SR): 17.9 µM (inactive)
GI50 (NCI-H460): 30.9 µM (inactive)
GI50 (HOP-92): 22.7 µM (inactive)
GI50 (NCI-H23): 31.6 µM (inactive)
GI50 (PC-3): 24.5 µM (inactive)
GI50 (CAKI-1): 15 µM (inactive)
GI50 (Malme-3M): 23.9 µM (inactive)
GI50 (NCI/ADR-RES): 26.8 µM (inactive)
GI50 (BT-549): 27.5 µM (inactive)
GI50 (HCC 2998): 27 µM (inactive)
GI50 (LOX IMVI): 18.2 µM (inactive)
GI50 (SF-539): 22.5 µM (inactive)
GI50 (UO-31): 1.24 µM (inactive)
GI50 (DU-145): 22.2 µM (inactive)
GI50 (NCI-H522): 23 µM (inactive)
GI50 (UACC-257): 26.4 µM (inactive)
GI50 (Hs-578T): 32.9 µM (inactive)
GI50 (SK-MEL-5): 15.7 µM (inactive)
GI50 (MDA-MB-435): 32.6 µM (inactive)
GI50 (TK-10): 30.1 µM (inactive)
